According to PubChem BioAssay AID276 (DTP/NCI, 2004):
Where “and” joins values, the source holds several entries; their conditions need not be identical. Identical values can stand only once. Toxic doses and inconclusive results are not listed.

Tested on: B6C3F1 mice, Lewis lung carcinoma iv, survival T/C
Experiment: NCI In Vivo Anticancer Drug Screen. Data for tumor model Lewis Lung Carcinoma (intravenous) in B6C3F1 mice
Conditions: endpoint: median survival time, schedule: Q01DX009 (ip), higher = longer survival
Summary of the method: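 Antitumor activity is assessed in tumor-bearing mice by comparing survival after compound treatment against vehicle-treated controls, reported as a T/C ratio.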

[1] = dose: 12.5 mg/kg/injection, vehicle: Klucel (hydroxypropylcellulose) (HPC)
[2] = dose: 25.0 mg/kg/injection, vehicle: Klucel (hydroxypropylcellulose) (HPC)
[3] = dose: 50.0 mg/kg/injection, vehicle: Klucel (hydroxypropylcellulose) (HPC)
[4] = dose: 100.0 mg/kg/injection, vehicle: Klucel (hydroxypropylcellulose) (HPC)
[5] = dose: 25.0 mg/kg/injection, vehicle: suspension in saline
[6] = dose: 50.0 mg/kg/injection, vehicle: suspension in saline
[7] = dose: 100.0 mg/kg/injection, vehicle: suspension in saline
[8] = dose: 200.0 mg/kg/injection, vehicle: suspension in saline
[9] = dose: 12.5 mg/kg/injection, vehicle: saline
[10] = dose: 25.0 mg/kg/injection, vehicle: saline
[11] = dose: 50.0 mg/kg/injection, vehicle: saline
[12] = dose: 100.0 mg/kg/injection, vehicle: saline
[13] = dose: 200.0 mg/kg/injection, vehicle: saline
[14] = dose: 0.78 mg/kg/injection, vehicle: saline with Tween-80
[15] = dose: 1.56 mg/kg/injection, vehicle: saline with Tween-80
[16] = dose: 3.12 mg/kg/injection, vehicle: saline with Tween-80
[17] = dose: 12.5 mg/kg/injection, vehicle: suspension in saline
[18] = dose: 1.0 mg/kg/injection, vehicle: saline
[19] = dose: 2.0 mg/kg/injection, vehicle: saline
[20] = dose: 200.0 mg/kg/injection, vehicle: Klucel (hydroxypropylcellulose) (HPC)
[21] = dose: 400.0 mg/kg/injection, vehicle: Klucel (hydroxypropylcellulose) (HPC)

SMILES: COc1cc(C2c3cc4c(cc3C(O)C(CO)C2CO)OCO4)cc(OC)c1OC (centres undefined)
- T/C [1]: 102 % of control
- T/C [2]: 104 % of control
- T/C [3]: 102 % of control
- T/C [4]: 113 % of control

SMILES: [Na+]
- T/C (dose: 50.0 mg/kg/injection, vehicle: water): 102 % of control
- T/C (dose: 100.0 mg/kg/injection, vehicle: water): 99 % of control
- T/C (dose: 200.0 mg/kg/injection, vehicle: water): 95 % of control
- T/C (dose: 400.0 mg/kg/injection, vehicle: water): 94 % of control
- T/C (dose: 800.0 mg/kg/injection, vehicle: water): 108 % of control

SMILES: Cc1cc2nc3c(=O)[nH]c(=O)nc-3n(CC(O)C(O)C(O)C(O)CO)c2cc1C (centres undefined)
- T/C [5]: 95 % of control
- T/C [6]: 110 % of control
- T/C [7]: 111 % of control
- T/C [8]: 115 % of control

SMILES: Nc1nc(F)nc2c1ncn2C1OC(COP(=O)(O)O)C(O)C1O (centres undefined)
- T/C [9]: 105 % of control
- T/C [10]: 102 % of control
- T/C [11]: 103 % of control
- T/C [12]: 114 % of control
- T/C [13]: 87 % of control

SMILES: CC[PH+](CC)CC[S-].CC[PH+](CC)CC[S-].[Au+].[Au+]
- T/C (dose: 2.5 mg/kg/injection, vehicle: Klucel (hydroxypropylcellulose) (HPC)): 99 % of control
- T/C (dose: 5.0 mg/kg/injection, vehicle: Klucel (hydroxypropylcellulose) (HPC)): 100 % of control
- T/C (dose: 10.0 mg/kg/injection, vehicle: Klucel (hydroxypropylcellulose) (HPC)): 98 % of control
- T/C (dose: 20.0 mg/kg/injection, vehicle: Klucel (hydroxypropylcellulose) (HPC)): 96 % of control

SMILES: Cc1cc(NCCCN(C)C)c2ccc3c(ccc4c(NCCCN(C)C)cc(C)nc43)c2n1
- T/C (dose: 0.19 mg/kg/injection, vehicle: saline with Tween-80): 101 % of control
- T/C (dose: 0.39 mg/kg/injection, vehicle: saline with Tween-80): 109 % of control
- T/C [14]: 100 % of control
- T/C [15]: 95 % of control
- T/C [16]: 100 % of control
- T/C (dose: 3.12 mg/kg/injection, vehicle: saline): 109 % of control

SMILES: Nc1nc(=S)c2ncn(C3CC(O)C(CO)O3)c2[nH]1 (centres undefined)
- T/C [17]: 113 % of control
- T/C [5]: 100 % of control
- T/C [6]: 108 % of control
- T/C [7]: 103 % of control
- T/C [8]: 95 % of control
- T/C (dose: 400.0 mg/kg/injection, vehicle: suspension in saline): 90 % of control

SMILES: CCCCCCCC(=O)OCC(=O)[C@]1(O)Cc2c(O)c3c(c(O)c2[C@@H](OC2CC(N)C(O)C(C)O2)C1)C(=O)c1c(OC)cccc1C3=O (some centres undefined)
- T/C [18]: 102 % of control
- T/C (dose: 1.0 mg/kg/injection, vehicle: suspension in saline): 120 % of control
- T/C [19]: 124 % of control
- T/C (dose: 2.0 mg/kg/injection, vehicle: suspension in saline): 112 % of control

SMILES: COc1cc2c(c(OC)c1OC)-c1ccc(OC)c(=O)cc1[C@@H](NC(C)=O)CC2
- T/C (dose: 0.06 mg/kg/injection, vehicle: saline): 108 % of control
- T/C (dose: 0.12 mg/kg/injection, vehicle: saline): 92 % of control
- T/C (dose: 0.19 mg/kg/injection, vehicle: saline): 99 % of control
- T/C (dose: 0.25 mg/kg/injection, vehicle: saline): 100 % of control
- T/C (dose: 0.39 mg/kg/injection, vehicle: saline): 104 % of control
- T/C (dose: 0.5 mg/kg/injection, vehicle: saline): 93 % of control
- T/C (dose: 0.78 mg/kg/injection, vehicle: saline): 104 % of control
- T/C [18]: 100 % of control
- T/C [19]: 112 % of control

SMILES: CC1CCC(n2cnc3c(Cl)ncnc32)O1 (centres undefined)
- T/C [1]: 91 % of control
- T/C [2]: 107 % of control
- T/C [3]: 107 % of control
- T/C [4]: 108 % of control
- T/C [20]: 113 % of control
- T/C [21]: 108 % of control

SMILES: O=S(=O)(SC(S(=O)(=O)c1ccccc1)S(=O)(=O)c1ccccc1)c1ccccc1
- T/C [4]: 100 % of control
- T/C [20]: 102 % of control
- T/C [21]: 98 % of control

SMILES: C[CH2][Sn]1([CH2]C)[O]OC(c2ccccc2)[O]1 (centres undefined)
- T/C [14]: 97 % of control
- T/C [15]: 100 % of control
- T/C [16]: 100 % of control
- T/C (dose: 12.5 mg/kg/injection, vehicle: saline with Tween-80): 95 % of control

SMILES: CCOC(=O)C(N)CSC(=O)NC (centres undefined)
- T/C [9]: 98 % of control
- T/C [10]: 103 % of control
- T/C [11]: 93 % of control
- T/C [12]: 101 % of control
- T/C [13]: 109 % of control

SMILES: Cc1c(N)nc(C(CC(N)=O)NCC(N)C(N)=O)nc1C(=O)NC(C(=O)NC(C)C(O)CC(=O)NC(C(=O)NC(OC1OC(C)C(N)C(O)C1O)C(O)c1nc(-c2nc(C(=O)NCCCC(N)CC(=O)NCCCNCCCCN)cs2)cs1)C(C)O)C(OC1OC(CO)C(O)C(O)C1OC1OC(CO)C(O)C(OC(N)=O)C1O)c1cnc[nH]1 (centres undefined)
- T/C [18]: 124 % of control
- T/C [19]: 123 % of control

SMILES: NNC(=S)N/N=C/c1ccccn1
- T/C (dose: 1.56 mg/kg/injection, vehicle: suspension in saline): 102 % of control
- T/C (dose: 3.12 mg/kg/injection, vehicle: suspension in saline): 86 % of control
- T/C (dose: 6.25 mg/kg/injection, vehicle: saline): 115 % of control
- T/C (dose: 6.25 mg/kg/injection, vehicle: suspension in saline): 98 % of control
- T/C [9]: 115 % of control
- T/C [17]: 108 % of control
- T/C [10]: 154 % of control
- T/C [5]: 101 % of control

SMILES: O=C(C/C(=N\C(=S)Nc1cc(C(F)(F)F)ccc1Cl)NO)N1CCCC1
- T/C (dose: 25.0 mg/kg/injection, vehicle: saline with Tween-80): 98 % of control and 101 % of control
- T/C (dose: 50.0 mg/kg/injection, vehicle: saline with Tween-80): 99 % of control and 105 % of control
- T/C (dose: 100.0 mg/kg/injection, vehicle: saline with Tween-80): 101 % of control and 111 % of control
- T/C (dose: 200.0 mg/kg/injection, vehicle: saline with Tween-80): 99 % of control

SMILES: C[C@H](N)C(=O)N[C@@H]1[C@H]2C(=C(O)C[C@@H](O)[C@@H]2O)C(=O)O[C@@H]1C
- T/C (dose: 75.0 mg/kg/injection, vehicle: saline): 102 % of control and 106 % of control
- T/C (dose: 150.0 mg/kg/injection, vehicle: saline): 105 % of control and 106 % of control
- T/C (dose: 300.0 mg/kg/injection, vehicle: saline): 107 % of control and 110 % of control
- T/C (dose: 600.0 mg/kg/injection, vehicle: saline): 114 % of control and 120 % of control
- T/C (dose: 1200.0 mg/kg/injection, vehicle: saline): 117 % of control
